# Laboratory results as given in US9593157B2, “Chimeric polypeptides comprising G protein-coupled receptors and VHH antibodies” (VIB VZW, priority 2013, dated 2017).
# T1: M2Δi3R-Nb9-8 (Homo sapiens, UniProt P08172, A373T/DEL233-372/K374R/N2D/N3D/N6D/N9D)
# T1 construct: linker […]; His6 (C); made in house
# T1 sequence (P08172 with tags, fused parts or gaps N2D/N3D/N6D/N9D/DEL233-372/A373T/K374R): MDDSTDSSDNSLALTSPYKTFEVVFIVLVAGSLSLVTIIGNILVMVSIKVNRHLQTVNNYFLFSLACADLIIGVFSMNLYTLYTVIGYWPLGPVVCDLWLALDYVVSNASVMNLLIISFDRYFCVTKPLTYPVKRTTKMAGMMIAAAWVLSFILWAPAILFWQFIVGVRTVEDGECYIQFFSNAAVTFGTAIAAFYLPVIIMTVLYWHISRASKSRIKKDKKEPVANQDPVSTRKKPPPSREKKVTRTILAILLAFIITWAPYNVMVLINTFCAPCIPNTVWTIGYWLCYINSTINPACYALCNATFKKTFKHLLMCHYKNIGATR
# T2: M2Δi3R-Nb9-1 (Homo sapiens, UniProt P08172, A373T/DEL233-372/K374R/N2D/N3D/N6D/N9D)
# T2 construct: linker […]; made in house; host or cells: Sf9 insect cells (baculovirus), membranes
# T2 sequence (P08172 with tags, fused parts or gaps N2D/N3D/N6D/N9D/DEL233-372/A373T/K374R): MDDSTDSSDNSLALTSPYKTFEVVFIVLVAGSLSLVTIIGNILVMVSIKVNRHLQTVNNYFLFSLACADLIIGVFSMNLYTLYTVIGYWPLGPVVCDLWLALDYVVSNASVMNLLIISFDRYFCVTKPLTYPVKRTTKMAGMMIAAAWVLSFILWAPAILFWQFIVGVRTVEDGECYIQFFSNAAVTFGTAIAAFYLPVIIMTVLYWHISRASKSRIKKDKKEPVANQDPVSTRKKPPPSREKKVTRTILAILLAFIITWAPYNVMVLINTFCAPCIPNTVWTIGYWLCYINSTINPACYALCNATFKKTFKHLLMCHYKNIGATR
# T3: M2Δi3R (Homo sapiens, UniProt P08172, A373T/DEL233-372/K374R/N2D/N3D/N6D/N9D)
# T3 construct: made in house; host or cells: Sf9 insect cells (baculovirus), membranes
# T3 sequence (P08172 with tags, fused parts or gaps N2D/N3D/N6D/N9D/DEL233-372/A373T/K374R): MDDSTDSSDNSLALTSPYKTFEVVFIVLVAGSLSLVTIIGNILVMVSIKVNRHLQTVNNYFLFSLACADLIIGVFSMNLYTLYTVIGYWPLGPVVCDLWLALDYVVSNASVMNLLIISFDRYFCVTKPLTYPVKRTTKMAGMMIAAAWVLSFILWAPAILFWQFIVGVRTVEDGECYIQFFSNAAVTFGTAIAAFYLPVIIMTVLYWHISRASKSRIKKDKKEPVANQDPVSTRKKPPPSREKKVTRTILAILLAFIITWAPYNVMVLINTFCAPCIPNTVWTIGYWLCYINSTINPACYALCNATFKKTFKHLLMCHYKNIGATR
# Assays:
# Type in all cases: binding
# M2Δi3R-Nb9-8 = molecular target: T1, M2Δi3R-Nb9-8; experiment: Radioligand competition on M2Δi3R-Nb9-8 fusion (data not shown)
# hMor1-34GS-Nb33 = molecular target: T4, hMor1-34GS-Nb33 (Homo sapiens, UniProt P35372); experiment: biochemical
# T4 construct: HA signal peptide (N); made in house; host or cells: Sf9 insect cells (baculovirus), membranes
# hMor1-34GS-Nb10 = molecular target: T5, hMor1-34GS-Nb10 (Homo sapiens, UniProt P35372); experiment: biochemical
# T5 construct: HA signal peptide (N); made in house; host or cells: Sf9 insect cells (baculovirus), membranes
# M2Δi3R-Nb9-1 = molecular target: T2, M2Δi3R-Nb9-1; experiment: Comparative radioligand competition assay ([3H]-N methyl scopolamine) on Sf9 membranes expressing M2Δi3R-Nb9-1
# Method: (§1) Radioligand competition binding experiments were performed on Sf9 insect cell membranes expressing either M2Δi3R (no Single-domain antibody fused) or M2Δi3R-Nb9-1. […] After filtration, membranes retained on the filter plates were washed with ice-cold wash buffer (20 mM Tris-HCl pH7.4), and filters were dried for 1 hour at 50° C.
# M2Δi3R = molecular target: T3, M2Δi3R; experiment: Comparative radioligand competition assay ([3H]-N methyl scopolamine) on Sf9 membranes expressing non-fused M2Δi3R; settings: [3H]-NMS 0.5 nM
# Method: as §1
# β2AR = β2AR (Homo sapiens, UniProt P07550); experiment: Affinity of Single-domain antibody for β2AR
# [1] = molecular target: T6, non-fused β2AR365N in presence of exogenously added Nb80 (Homo sapiens, UniProt P07550, E27Q/G16R/N187E); experiment: Radioligand competition assay on non-fused β2AR365N in complex with exogenously added Nb80; settings: epinephrine bound active state; 5 μM Nb80 in 250 μl
# T6 construct: made in house; host or cells: Sf9 insect cells (baculovirus), membranes; purified Nb80 added
# Method: To compare the efficiency of fused versus non-fused Nb80 to stabilize the active state of β2AR, the pharmacological properties of the β2AR365N-Nb80 fusion was compared to the non-fused β2AR365N in complex with exogenously added Nb80. […] The β2AR365N-Nb69 fusion and β2AR365N in complex with exogenously added Nb69 were assayed in parallel as controls.
# Radioligand competition binding experiments were performed on Sf9 insect cell membranes (5 μg total protein) expressing either β2AR365N (no Single-domain antibody fused), β2AR365N-Nb80 or β2AR365N-Nb69. […] Data represent the mean±SEM of each data point performed in triplicate.
# Mor1 = Mor1 (Homo sapiens, UniProt P35372); experiment: Affinity of Single-domain antibody for Mor1
molecule,measurement,setting,value
C[N+](C)(C)CCOC(N)=O [carbachol],affinity of M2Δi3R-Nb9-8 fusion compared to non-fused M2Δi3R,M2Δi3R-Nb9-8,higher affinity
Cc1cc(O)cc(C)c1C[C@H](N)C(=O)N[C@H](CCCNC(=N)N)C(=O)N[C@H]1Cc2ccccc2CN(CCC(N)=O)C1=O [KGOP01],IC50,hMor1-34GS-Nb33,3.8 nM
same,IC50Nb33/IC50Nb10 (fold preference),hMor1-34GS-Nb33,20
same,IC50,hMor1-34GS-Nb10,76.7 nM
C[N+](C)(C)CC#CCN1CCCC1=O [oxotremorine M],IC50 ratio IC50m2Δi3R/IC50highM2Δi3R-Nb9-1,M2Δi3R-Nb9-1,316
same,IC50,"M2Δi3R-Nb9-1; [3H]-NMS 0.5 nM, Sf9 membranes, IC50high",310 nM
same,IC50,M2Δi3R,98400 nM
"Nb69: mock Single-domain antibody specific for Muscarinic3 receptor, SEQ ID NO:15 (protein, Nb69) VHH: QVQLQESGGGLVQAGGSLRLSCTASGLTLSNYAMGWFRQAPGKEREFVAADTWNGNTYHQDSVKGRFTISRDNAKNTVYLQMNYLKPEDTAVYYCAARGSRRSAYYSSSDYTYRGQGTQVTVSS",affinity for β2AR,β2AR,no detectable affinity
"Nb80: β2AR specific Single-domain antibody stabilizing the active state, SEQ ID NO:13 (protein, Nb80) VHH: QVQLQESGGGLVQAGGSLRLSCAASGSIFSINTMGWYRQAPGKQRELVAAIHSGGSTNYANSVKGRFTISRDNAANTVYLQMNSLKPEDTAVYYCNVKDYGAVLYEYDYWGQGTQVTVSS",molar excess of exogenously added Nb80 over β2AR required to constrain the receptor with same efficiency as the fusion,[1],12500 fold
"Nb10: Single-domain antibody specific for a chemokine GPCR, SEQ ID NO:20 (protein, Nb10) VHH: QVQLQESGGGLVQPGGSLRLSCAASGSFRSIVSMAWYRQAPGKQRELVASSNSGGSTNYADSVKGRFTISRDNAKNTVYLQMNSLKPEDTAVYWCNVQNRLPGFDAFSGRSIAETYWGQGTQVTVSS",affinity for Mor1,Mor1,no detectable affinity
